Experiment [1] can be described thus: A Cell Based Secondary Assay To Explore Cytotoxicity of Compounds that Sensitize Mycobacterium Tuberculosis to Beta-Lactam Antibiotics. Type of experiment: functional.
Experiment [2] addresses T1, Calpain-2 catalytic subunit (Sus scrofa, UniProt P43367).
T1 sequence (P43367 whole entry): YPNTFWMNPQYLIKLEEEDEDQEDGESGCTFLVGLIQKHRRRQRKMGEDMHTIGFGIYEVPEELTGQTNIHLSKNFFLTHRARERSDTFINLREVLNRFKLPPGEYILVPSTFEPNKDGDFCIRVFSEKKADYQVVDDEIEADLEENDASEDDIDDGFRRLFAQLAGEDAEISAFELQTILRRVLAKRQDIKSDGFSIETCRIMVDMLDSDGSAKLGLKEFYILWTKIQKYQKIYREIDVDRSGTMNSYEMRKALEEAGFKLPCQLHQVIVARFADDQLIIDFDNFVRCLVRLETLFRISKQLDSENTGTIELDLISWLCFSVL
Kind of experiment: m-calpain protease blockers, concentration series – biochemical, fluorogenic peptide substrate, dose response (AID 1420). Type of experiment: functional.

Experiment [3] is described as follows: viability of HCT116 lacking mutant beta-catenin – cell-based, human colon tumor, dose response (AID 1045).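 Note: HCT116 colon tumor cells with beta catenin knocked out; cells exposed to compound for 60 hours.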 Format: functional.
A short description of experiment [4]: viability of PTEN-deleted HCT116 cells – cell-based, HCT116 PTEN knockout, dose response (AID 1047).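 Note: HCT116 colon tumor cells with PTEN knocked out; cells exposed to compound for 60 hours before readout; potency for loss of cell viability measured by luminescence.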 Type of experiment: functional.
The target of the next experiment is T2, Bcl-2-like protein 10 (Homo sapiens, UniProt Q9HD36).
T2 sequence (Q9HD36 whole entry): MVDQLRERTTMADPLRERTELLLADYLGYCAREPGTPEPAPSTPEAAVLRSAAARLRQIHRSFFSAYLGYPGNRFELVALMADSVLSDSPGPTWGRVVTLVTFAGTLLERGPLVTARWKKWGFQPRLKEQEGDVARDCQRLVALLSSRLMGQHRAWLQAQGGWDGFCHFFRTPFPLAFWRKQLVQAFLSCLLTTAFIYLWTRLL
Kind of experiment: Bcl-B/TR3 peptide binding disruption – biochemical, fluorescence polarization, FITC-TR3 peptide, selectivity assay for Bfl-1 inhibitor project, primary screen (AID 748).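 Note: fluorescence polarization from a fluorescein-labelled TR3 peptide binding purified Bcl-B.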

Experiment [5] is described as follows: alpha-synuclein stem-loop luciferase translation blockers – H4 neuroglioma cells, luminescence, confirmation (AID 1988). Format: functional, cell-based.
For the next experiment, the target named is Nonstructural protein 1 (Influenza A virus, UniProt Q194T2). Format: functional, Influenza A virus (A/California/07/2009(H1N1)).
Nonstructural protein 1, sequence (Q194T2 whole entry): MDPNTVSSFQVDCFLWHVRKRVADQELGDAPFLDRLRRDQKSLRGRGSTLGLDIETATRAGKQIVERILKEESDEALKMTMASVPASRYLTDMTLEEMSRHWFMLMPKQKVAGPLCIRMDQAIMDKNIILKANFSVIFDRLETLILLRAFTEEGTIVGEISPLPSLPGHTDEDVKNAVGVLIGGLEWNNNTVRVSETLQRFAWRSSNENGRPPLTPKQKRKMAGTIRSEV
The next experiment concerns the target Large T antigen (Simian virus 40, UniProt P03070). Type of experiment: functional, Betapolyomavirus macacae.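 Note: Confirmatory-stage PubChem screen for compounds that inhibit SV40 T antigen.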
A short description of experiment [6]: luciferase reporter signal reduction – luminescence, H4-C neuroglioblastoma cells, dose response (AID 2458).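 Note: H4 neuroglioblastoma cells stably carrying a luciferase reporter gene fusion.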 Format: functional, cell-based.
Experiment [7] can be described thus: alpha-synuclein stem-loop translation blockers – luminescence, H4 neuroglioblastoma cells, dose confirmation, confirmation (AID 2454).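 Note: H4 neuroglioblastoma cells carrying an alpha-synuclein 5'UTR luciferase reporter; potency for inhibition of the luciferase signal.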 Format: functional, cell-based.
The nature of a further experiment: cells. Type of experiment: functional, cell-based.
Experiment [8] is described as follows: luciferase reporter signal suppression in cells – H4 neuroglioma cells, luminescence, dose response (AID 1990). Format: functional, cell-based.
Experiment [9] is described as follows: HEK-293T viability loss after treatment – luminescence, T-cell screen hits, cytotoxicity control for TCR NF-kB inhibitor project, dose response (AID 489026).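 Note: cells exposed to compound about 14 hours before the viability readout.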 Type of experiment: functional, cell-based.
Experiment [10] can be described thus: Luminescence Cell-Based Dose Response HTS to Identify Inhibitors of 5'UTR Stem-Loop Driven Prion Protein mRNA Translation in H4 Neuroglioblastoma Cells. [Related pubchem assays: 1827 (Project Summary), 1813 (Primary HTS)]. Format: functional.
A further experiment has as its target T3, Aminopeptidase N (Plasmodium falciparum FcB1/Columbia, UniProt O96935).
T3 sequence (O96935 whole entry): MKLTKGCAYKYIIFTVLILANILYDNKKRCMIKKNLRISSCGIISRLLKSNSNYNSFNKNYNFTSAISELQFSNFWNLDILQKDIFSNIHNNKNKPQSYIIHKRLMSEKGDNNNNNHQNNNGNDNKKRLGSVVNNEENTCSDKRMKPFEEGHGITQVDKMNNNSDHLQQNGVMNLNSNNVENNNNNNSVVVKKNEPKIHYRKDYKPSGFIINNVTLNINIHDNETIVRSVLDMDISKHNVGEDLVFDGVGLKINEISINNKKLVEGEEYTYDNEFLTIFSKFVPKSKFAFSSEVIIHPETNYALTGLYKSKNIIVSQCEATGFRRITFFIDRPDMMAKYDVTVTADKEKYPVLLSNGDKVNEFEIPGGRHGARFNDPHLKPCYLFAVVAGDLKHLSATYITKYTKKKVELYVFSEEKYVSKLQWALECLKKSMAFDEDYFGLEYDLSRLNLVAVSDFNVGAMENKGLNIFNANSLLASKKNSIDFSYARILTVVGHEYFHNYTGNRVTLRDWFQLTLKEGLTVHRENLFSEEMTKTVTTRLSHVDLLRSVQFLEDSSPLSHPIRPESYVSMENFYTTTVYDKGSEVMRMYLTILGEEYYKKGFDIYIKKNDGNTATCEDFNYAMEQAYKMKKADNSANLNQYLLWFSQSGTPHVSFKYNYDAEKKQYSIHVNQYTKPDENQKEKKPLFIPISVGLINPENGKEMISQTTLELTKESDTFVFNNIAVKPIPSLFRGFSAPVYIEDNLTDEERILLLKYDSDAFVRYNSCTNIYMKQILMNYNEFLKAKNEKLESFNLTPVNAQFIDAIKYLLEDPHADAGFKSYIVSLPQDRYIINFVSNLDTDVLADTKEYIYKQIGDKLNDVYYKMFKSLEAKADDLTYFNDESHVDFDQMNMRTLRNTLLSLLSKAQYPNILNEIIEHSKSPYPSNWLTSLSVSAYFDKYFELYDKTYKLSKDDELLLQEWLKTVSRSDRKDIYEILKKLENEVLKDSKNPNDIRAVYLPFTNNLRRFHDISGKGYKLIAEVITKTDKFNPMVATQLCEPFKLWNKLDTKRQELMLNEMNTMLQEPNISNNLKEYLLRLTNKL
Kind of experiment: malaria alanyl aminopeptidase activity blockers – biochemical, fluorogenic H-Leu-NHMec substrate, 1536-well (AID 1445). Details: species or system Plasmodium falciparum 3D7, 3D7.

Another experiment has as its target T4, Streptokinase A (Streptococcus pyogenes serotype M1, UniProt P10520).
T4 sequence (P10520 whole entry): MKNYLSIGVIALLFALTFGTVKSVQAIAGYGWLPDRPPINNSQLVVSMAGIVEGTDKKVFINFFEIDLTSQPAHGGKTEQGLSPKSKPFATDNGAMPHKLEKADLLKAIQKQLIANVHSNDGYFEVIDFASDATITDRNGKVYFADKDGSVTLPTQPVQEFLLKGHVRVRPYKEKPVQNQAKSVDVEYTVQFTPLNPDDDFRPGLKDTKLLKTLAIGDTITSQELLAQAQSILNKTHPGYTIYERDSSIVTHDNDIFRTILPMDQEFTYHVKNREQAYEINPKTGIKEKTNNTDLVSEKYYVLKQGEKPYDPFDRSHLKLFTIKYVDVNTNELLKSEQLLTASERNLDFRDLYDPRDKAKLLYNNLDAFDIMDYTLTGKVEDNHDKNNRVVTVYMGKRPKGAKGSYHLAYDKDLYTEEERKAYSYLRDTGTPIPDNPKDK
The experiment is described as follows: viability-normalized secreted streptokinase activity reduction – plasminogen activation absorbance, OD405, dose response (AID 1914).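 Note: secreted streptokinase activity via plasminogen activation per viability signal from cell pellet.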 Format: functional, Streptococcus pyogenes M1 GAS.

Another experiment concerns Streptococcus. Kind of experiment: GAS UMAA2166 growth inhibition – luminescence, BacTiterGlo, counter-screen for streptokinase expression inhibitor project, dose response (AID 1915).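 Note: potency for reduction of bacterial viability or growth.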 Format: functional, organism-based.
The test system of experiment [11] is Streptococcus sp. 'group A'. Kind of experiment: Streptococcus pyogenes SK(-)GAS viability under kanamycin – luminescence, BacTiterGlo, confirmation, counter-screen for streptokinase expression inhibitor project, dose response (AID 1900). Type of experiment: functional, organism-based.

Molecules are shown by their SMILES. The source made the active and inactive calls.

Large T antigen, sequence (P03070 whole entry, the tested form may be a part): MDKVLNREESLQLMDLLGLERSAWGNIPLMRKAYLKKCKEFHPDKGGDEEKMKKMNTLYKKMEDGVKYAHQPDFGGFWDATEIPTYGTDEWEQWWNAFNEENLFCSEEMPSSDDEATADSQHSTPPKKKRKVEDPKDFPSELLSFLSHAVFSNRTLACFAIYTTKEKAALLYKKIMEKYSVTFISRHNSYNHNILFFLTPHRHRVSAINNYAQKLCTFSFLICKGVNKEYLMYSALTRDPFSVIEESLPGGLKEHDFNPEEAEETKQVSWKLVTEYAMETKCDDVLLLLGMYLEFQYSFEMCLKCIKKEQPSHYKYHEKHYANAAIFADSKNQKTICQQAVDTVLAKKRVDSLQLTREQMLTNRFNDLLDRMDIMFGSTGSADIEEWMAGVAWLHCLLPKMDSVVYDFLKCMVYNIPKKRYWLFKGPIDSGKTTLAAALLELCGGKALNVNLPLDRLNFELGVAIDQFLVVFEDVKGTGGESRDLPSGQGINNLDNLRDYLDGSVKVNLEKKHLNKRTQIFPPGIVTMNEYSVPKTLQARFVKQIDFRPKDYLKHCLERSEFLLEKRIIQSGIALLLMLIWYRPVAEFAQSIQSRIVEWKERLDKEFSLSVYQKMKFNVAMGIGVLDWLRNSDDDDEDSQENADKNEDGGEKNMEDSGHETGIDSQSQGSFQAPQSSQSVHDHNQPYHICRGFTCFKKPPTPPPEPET

As for `O=C(Nc1ccc(OC(=O)c2ccccc2)c(-c2nc3ccccc3s2)c1)c1ccccc1`, the CC50 in [1] was > 40 µM (active). Besides, the IC50 in [2] is on record as 18.5 µM (not active). Further, the EC50 in [3] was 24.2 µM (active); in experiment [4] it was 18.2 µM (active).
Consider `Cc1cc(C)c(C)c(S(=O)(=O)N2CCC(C(=O)OCC(=O)N3c4ccccc4NC(=O)C3(C)C)CC2)c1C`, for which the IC50 on Bcl-2-like protein 10 is 45.3 µM (active).
`Cc1nc2ncccn2c1-c1csc(Nc2ccc(N(C)C)cc2)n1`: the EC50 in experiment [5] is < 0.1 µM (inconclusive); in experiment [6] it was 0.108 µM (active); in experiment [7], 0.128 µM (active); in “cells”, 0.163 µM (active); in experiment [8], > 120 µM (not active). In addition, the IC50 is 8.9 µM (active) on Nonstructural protein 1 and 6.91 µM (active) on Large T antigen.
With `CCOc1ccccc1NC(=O)Cn1nnc(C(=O)NCc2cccs2)c1N`, the EC50 is < 0.1 µM (active) in [5]; < 0.1 µM (active) in experiment [10]; 0.877 µM (active) in experiment [6]; 0.685 µM (active) in experiment [7]; 0.696 µM (active) in “cells”; 0.146 µM (active) in experiment [8]. Moreover, in [9], the IC50 is > 80 µM (inactive).
For the compound `Cc1cc(=O)oc2c(CN(CC(C)C)CC(C)C)c(O)ccc12`, the IC50 on Aminopeptidase N was 74 µM (active).
Take `Cc1cccc(NC(=O)c2nc[nH]c2C(=O)N[C@@H](CC(C)C)C(=O)OCc2ccccc2)c1`: in experiment [1], the CC50 is 22.4 µM (active). Also, the results for the EC50 (at Streptokinase A; with Streptococcus; in [11]) were > 150 µM (not active), 3.95 µM (active) and 2.12 µM (active), respectively.
`COc1ccc(Br)cc1/C=N/NC(=O)CNC(=O)c1cccnc1`: the IC50 at Aminopeptidase N was 27.2 µM (active).
